Assay results: BindingDB's records for patent US9670231 (BeiGene, Ltd, 2017)

Columns and labels:
[1] = biological target: Serine/threonine-protein kinase B-raf [V600E] (Homo sapiens, UniProt P15056, V600E); assay: Not found
[2] = biological target: RAF proto-oncogene serine/threonine-protein kinase [Y340D,Y341D] (Homo sapiens, UniProt P04049, Y340D/Y341D); assay: Not found
From the text: Not found

Sequence of RAF proto-oncogene serine/threonine-protein kinase [Y340D,Y341D] (P04049 whole entry Y340D/Y341D): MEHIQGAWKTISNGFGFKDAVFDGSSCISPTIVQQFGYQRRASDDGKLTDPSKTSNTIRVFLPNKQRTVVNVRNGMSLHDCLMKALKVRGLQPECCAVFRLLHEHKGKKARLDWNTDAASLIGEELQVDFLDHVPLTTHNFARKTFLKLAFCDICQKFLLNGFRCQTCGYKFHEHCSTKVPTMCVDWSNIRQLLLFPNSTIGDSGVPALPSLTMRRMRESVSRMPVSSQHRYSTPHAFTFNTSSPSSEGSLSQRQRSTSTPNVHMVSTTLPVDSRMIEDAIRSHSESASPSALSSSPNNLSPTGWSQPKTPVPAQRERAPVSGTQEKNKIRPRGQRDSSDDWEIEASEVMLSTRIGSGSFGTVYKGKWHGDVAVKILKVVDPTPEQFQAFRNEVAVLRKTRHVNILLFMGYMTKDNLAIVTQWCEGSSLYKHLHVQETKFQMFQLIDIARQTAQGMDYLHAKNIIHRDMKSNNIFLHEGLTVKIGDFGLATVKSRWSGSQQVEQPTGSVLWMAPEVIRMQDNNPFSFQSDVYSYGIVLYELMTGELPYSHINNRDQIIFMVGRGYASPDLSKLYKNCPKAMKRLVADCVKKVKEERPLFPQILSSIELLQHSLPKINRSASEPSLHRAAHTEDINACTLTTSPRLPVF
Sequence of Serine/threonine-protein kinase B-raf [V600E] (P15056 2-766 V600E limits assumed): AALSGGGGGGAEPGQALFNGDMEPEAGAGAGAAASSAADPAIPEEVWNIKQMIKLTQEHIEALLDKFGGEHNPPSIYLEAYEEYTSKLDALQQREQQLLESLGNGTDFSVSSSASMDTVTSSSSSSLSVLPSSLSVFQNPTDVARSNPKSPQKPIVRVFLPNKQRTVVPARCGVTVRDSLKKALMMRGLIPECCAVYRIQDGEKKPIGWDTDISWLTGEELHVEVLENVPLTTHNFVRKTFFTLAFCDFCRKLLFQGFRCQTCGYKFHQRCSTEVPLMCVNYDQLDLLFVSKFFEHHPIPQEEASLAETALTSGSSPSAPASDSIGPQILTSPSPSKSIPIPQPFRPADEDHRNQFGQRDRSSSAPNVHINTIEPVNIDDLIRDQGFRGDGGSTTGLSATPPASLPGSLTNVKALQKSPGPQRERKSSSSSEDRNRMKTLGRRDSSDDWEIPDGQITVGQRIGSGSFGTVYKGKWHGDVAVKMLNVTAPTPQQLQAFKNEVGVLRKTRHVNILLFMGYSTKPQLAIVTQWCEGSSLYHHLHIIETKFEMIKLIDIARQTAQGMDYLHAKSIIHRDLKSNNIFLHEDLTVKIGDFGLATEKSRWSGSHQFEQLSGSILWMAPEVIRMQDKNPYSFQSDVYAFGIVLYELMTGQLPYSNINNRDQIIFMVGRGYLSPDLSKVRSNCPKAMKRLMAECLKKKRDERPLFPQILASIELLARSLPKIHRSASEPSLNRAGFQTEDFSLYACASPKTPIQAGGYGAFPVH

Structure (SMILES) | IC50 [1] [nM] | IC50 [2] [nM]
CN(C)[C@H]1CCN(Cc2ccc(C(=O)N[C@@H]3[C@H]4Oc5ccc(Oc6ccnc7c6CCC(=O)N7)cc5[C@@H]34)cc2C(F)(F)F)C1 [US9670231, 1.9] | 17 | 
CN(C)[C@@H]1CCN(Cc2ccc(C(=O)N[C@@H]3[C@H]4Oc5ccc(Oc6ccnc7c6CCC(=O)N7)cc5[C@@H]34)cc2C(F)(F)F)C1 [US9670231, 1.10] | 14 | 
O=C1CCc2c(Oc3ccc4c(c3)[C@H]3[C@H](NC(=O)c5ccc(CN6CCC[C@H](O)C6)c(C(F)(F)F)c5)[C@H]3O4)ccnc2N1 [US9670231, 1.15] |  | 6.2
O=C1CCc2c(Oc3ccc4c(c3)[C@H]3[C@H](NC(=O)c5ccc(CN6CCN(CCO)CC6)c(C(F)(F)F)c5)[C@H]3O4)ccnc2N1 [US9670231, 1.17] | 10.4 | 
CN(C)C1CCN(Cc2ccc(C(=O)N[C@@H]3[C@H]4Oc5ccc(Oc6ccnc7c6CCC(=O)N7)cc5[C@@H]34)cc2C(F)(F)F)CC1 [US9670231, 1.20] | 11 | 2.1
CN1CCN(CCOc2ccc(C(=O)N[C@@H]3[C@H]4Oc5ccc(Oc6ccnc7c6CCC(=O)N7)cc5[C@@H]34)cc2C(F)(F)F)CC1 [US9670231, 1.52] | 14 | 2.5
CN1CCN(Cc2ccc(C(=O)N[C@@H]3[C@H]4Oc5ccc(Oc6ccnc7c6COC(=O)N7)cc5[C@@H]34)cc2C(F)(F)F)CC1 [US9670231, 2.2] | 11 | 
